Values of other authors in paper PMC10757118, “HS‐10352 in hormone receptor‐positive, HER2‐negative advanced breast cancer: A phase 1 dose‐escalation trial” (Cancer Medicine, 2023).

What was measured:
[1] = system: PIK3CA‐mutant breast cancer; parameters: method as in PMID 29066505; settings: PIK3CA‐mutant breast cancer patients ref 31
[2] = system: PIK3CA‐mutant, HR‐positive, HER2‐negative breast cancer; parameters: method as in ref 33 = [33]; 33 Juric D , Kalinsky K , Oliveira M , et al. Abstract OT1‐08‐04: a first‐in‐human phase Ia dose escalation study of GDC‐0077, a p110a‐selective and mutant‐degrading PI3K inhibitor, in patients with P; settings: single agent, HER2‐negative breast cancer patients ref 33
[3] = system: ER‐positive, HER2‐negative breast cancer; parameters: method as in PMID 29401002; settings: monotherapy, HER2‐negative breast cancer patients ref 19
[4] = system: HR‐positive, HER2‐negative breast cancer with altered AKT pathways; parameters: method as in ref 35 = [35]; 35 Turner N , Oliveira M , Howell SJ , et al. Abstract GS3‐04: GS3‐04 Capivasertib and fulvestrant for patients with aromatase inhibitor‐resistant hormone receptor‐positive/human epidermal growth fact; settings: CAPItello‐291, altered AKT pathways ref 35

In the case of `NC1(C(=O)N[C@@H](CCO)c2ccc(Cl)cc2)CCN(c2ncnc3[nH]ccc23)CC1` [Capivasertib], the ORR [1] is given as 4%.
In the case of `C[C@H](Nc1ccc2c(c1)OCCn1cc(N3C(=O)OC[C@H]3C(F)F)nc1-2)C(N)=O` [GDC‐0077], the “confirmed ORR” value [2] is listed as 20%.
For `Cc1nc(NC(=O)N2CCC[C@H]2C(N)=O)sc1-c1ccnc(C(C)(C)C(F)(F)F)c1` [alpelisib], the ORR [3] is listed as 4.3%.
In the case of `C[C@]12CC[C@@H]3c4ccc(O)cc4C[C@@H](CCCCCCCCC[S+]([O-])CCCC(F)(F)C(F)(F)F)[C@H]3[C@@H]1CC[C@@H]2O` (some centres unmarked) [fulvestrant without capivasertib], the ORR [4] is given as 9.7% and the “median PFS” value [4] is given as 3.1 months.
